{"source": "ChEMBL document CHEMBL3352229", "about": "“20(S)-Ginsenoside Rh2 as aldose reductase inhibitor from Panax ginseng” (Bioorg Med Chem Lett, 2014)", "molecular_target": "Aldo-keto reductase family 1 member B1 (Homo sapiens, UniProt P15121)", "test": "Inhibition of human recombinant aldose reductase using DL-glyceraldehyde, HRAR and beta-NADPH incubated for 10 mins by spectrophotometry", "data": [{"smiles": "CC(C)=CCC[C@@](C)(O)[C@H]1CC[C@]2(C)[C@@H]1[C@H](O)C[C@@H]1[C@@]3(C)CC[C@H](O[C@@H]4O[C@H](CO)[C@@H](O)[C@H](O)[C@H]4O[C@@H]4O[C@H](CO)[C@@H](O)[C@H](O)[C@H]4O)C(C)(C)[C@@H]3CC[C@]12C", "values": [{"measurement": "IC50", "result": "> 200", "unit": "µM"}]}, {"smiles": "CC(C)=CCC[C@@](C)(O)[C@H]1CC[C@]2(C)[C@@H]1[C@H](O)C[C@@H]1[C@@]3(C)CC[C@H](O[C@@H]4O[C@H](CO)[C@@H](O)[C@H](O)[C@H]4O)C(C)(C)[C@@H]3CC[C@]12C", "values": [{"measurement": "IC50", "result": "> 200", "unit": "µM"}]}, {"smiles": "CC(C)=CCC[C@](C)(O)[C@H]1CC[C@@]2(C)[C@@H]1[C@@H](O)C[C@@H]1[C@@]3(C)CC[C@H](O)C(C)(C)[C@@H]3[C@@H](O[C@@H]3O[C@H](CO)[C@@H](O)[C@H](O)[C@H]3O[C@@H]3O[C@H](CO)[C@@H](O)[C@H](O)[C@H]3O)C[C@]12C", "values": [{"measurement": "IC50", "result": "> 200", "unit": "µM"}]}, {"smiles": "CC(C)=CCC[C@](C)(O[C@@H]1O[C@H](CO)[C@@H](O)[C@H](O)[C@H]1O)[C@H]1CC[C@]2(C)[C@@H]1[C@H](O)C[C@@H]1[C@@]3(C)CC[C@H](O)C(C)(C)[C@@H]3CC[C@]12C", "values": [{"measurement": "IC50", "result": "> 200", "unit": "µM"}]}, {"smiles": "CC(C)=CCC[C@](C)(O)[C@H]1CC[C@]2(C)[C@@H]1[C@H](O)C[C@@H]1[C@@]3(C)CC[C@H](O[C@@H]4O[C@H](CO)[C@@H](O)[C@H](O)[C@H]4O[C@@H]4O[C@H](CO)[C@@H](O)[C@H](O)[C@H]4O)C(C)(C)[C@@H]3CC[C@]12C", "values": [{"measurement": "IC50", "result": "> 200", "unit": "µM"}]}, {"smiles": "CC(C)=CCCC(C)(O)[C@H]1CC[C@]2(C)[C@@H]1[C@H](O)C[C@@H]1[C@@]3(C)CC[C@H](O[C@@H]4O[C@H](CO)[C@@H](O)[C@H](O)[C@H]4O)C(C)(C)[C@@H]3CC[C@]12C", "note": "(mixture of isomers)", "values": [{"measurement": "IC50", "result": "> 200", "unit": "µM"}]}, {"smiles": "CC(C)=CCC[C@](C)(O)[C@H]1CC[C@]2(C)[C@@H]1[C@H](O)C[C@@H]1[C@@]3(C)CC[C@H](O)C(C)(C)[C@@H]3[C@@H](O[C@@H]3O[C@H](CO)[C@@H](O)[C@H](O)[C@H]3O)C[C@]12C", "note": "[GINSENOSIDE RH1]", "values": [{"measurement": "IC50", "result": "> 200", "unit": "µM"}]}, {"smiles": "CC(C)=CCC[C@](C)(O)[C@H]1CC[C@]2(C)[C@@H]1[C@H](O)C[C@@H]1[C@@]3(C)CC[C@H](O[C@@H]4O[C@H](CO)[C@@H](O)[C@H](O)[C@H]4O)C(C)(C)[C@@H]3CC[C@]12C", "note": "[GINSENOSIDE RH2]", "values": [{"measurement": "IC50", "result": 147, "unit": "µM"}]}]}
